Data from patent US8501743B2, “Personal care composition” (Conopco, Inc., priority 2007, dated 2013).

How the values were obtained:
[1] = cited from earlier work
[2] = test system: Malassezia furfur CBS 7019; experiment: Formulation bio-efficacy (Malassezia kill) by Vitro-Skin assay; format: cell-based; settings: FIG. 5
Method: Assessment of Formulation Bio-Efficacy (Malassezia Kill) by Vitro-Skin™ Assay Formulation bio-efficacy was assessed using an in vitro substantivity assay which evaluates the effectiveness of actives in shampoo and conditioners using Malassezia furfur CBS 7019 as the organism. Malassezia furfur for the inoculation of artificial skin were initially grown in Pityrosporum Broth, and added to molten agar slurry immediately prior to the inoculation of the Vitro-Skin™ at a final concentration of 1-3×10^5 cells/ml. Vitro-Skin™ was placed onto a Modified Dixon Agar Plate (1 skin per plate), and 0.5 ml of agar slurry inoculum was gently pipetted onto the rough surface of the skin, in a film 1-2 mm deep. After the agar had gelled, the plates were placed in an incubator (32° C.) for 24 h. Following incubation, each piece of Vitro-Skin™ was carefully folded in half (inoculum on the inside) using sterile forceps, and placed a vial containing 10 ml of Butterfield's phosphate buffer (pH 7.2), 0.1% Triton X-100, 0.5% Tween and 0.08% lecithin. The vial was vortexed for 1 min (high setting), and 1 ml of this sample (10°) then added to 9 ml of 0.1% peptone (in water: 10^−1 sample). This sample was then serially diluted to 10^−5 in 0.1% peptone. For immediate controls, 0.1 ml of 10^0-10^−4 dilutions were plated onto Modified Dixon Agar Plates. For 24 h incubated samples, 0.1 ml of 10^0-10^−5 dilutions were plated onto Modified Dixon Agar Plates, and incubated at 32° C. for 4-5 days. The number of colonies on each plate were then counted, and final numbers determined by multiplying by the appropriate dilution.

[3] = 0.2% active alone in shampoo formula 1

CC(=O)N1CCN(c2ccc(OC[C@@H]3CO[C@@](Cn4ccnc4)(c4ccc(Cl)cc4Cl)O3)cc2)CC1 [ketoconazole, 1-[4-[4-[[(2S,4R)-2-(2,4-dichlorophenyl)-2-(imidazol-1-ylmethyl)-1,3-dioxolan-4-yl]methoxy]phenyl]piperazin-1-yl]ethanone]
solubility in ethanol ([1]; ethanol, ambient temperature): soluble | solubility in water ([1]; water): virtually insoluble | microkill (Malassezia furfur kill) ([2]; 0.1% active alone in shampoo formula 1): relatively ineffective | microkill (Malassezia furfur kill) [2, 3]: highly effective

O=C(O)c1ccccc1O [salicylic acid]
microkill (Malassezia furfur kill) [2, 3]: relatively ineffective

CC1CCC(C(C)C)C(O)C1 (stereo not drawn) [menthol]
microkill (Malassezia furfur kill) [2, 3]: relatively ineffective
